In brackets after ≈: the same amount, converted by molar mass.
Experiments:
Oryctolagus sp. = details: reproduction developmental; body weight
Ictalurus punctatus = details: acute; duration: 96 hours; mortality
Bibionidae = details: chronic/long-term; duration: 28 days
Folsomia candida = details: chronic/long-term; duration: 28 days
Lepomis macrochirus = details: acute; duration: 96 hours; mortality
Pimephales promelas = details: chronic/long-term; duration: 33 days; growth
Hypoaspis aculeifer = details: chronic/long-term; duration: 14 days
Apis mellifera = details: acute, mortality
Canidae = details: chronic; duration: 1 years; oral; Dog Other; organ weight
Typhlodromus pyri = assay: LR50; higher = less toxic; details: not reported; mortality
Aphidius rhopalosiphi = assay: LR50; higher = less toxic; details: not reported; mortality

CNC(=O)c1cc(C#N)cc(C)c1NC(=O)c1cc(Br)nn1-c1ncccc1Cl [Cyantraniliprole]
NOAEL (Oryctolagus sp.): 25 mg/kg-day | LC50 (Ictalurus punctatus): > 10 mg/L | NOEC (Bibionidae): 0.01 mg/L | NOEC (Folsomia candida): 0.08 mg/kg | LC50 (Lepomis macrochirus): 2.4 mg/L (≈ 5.07 µM) | NOEC (Pimephales promelas): 2.9 mg/L | NOEC (Hypoaspis aculeifer): 1000 mg/kg | LD50 (Rattus norvegicus; acute, oral, mortality): > 5000 mg/kg | NOAEL (Rattus norvegicus; reproduction developmental, organ weight): 1.2 mg/kg-day | LD50 (Apis mellifera; dermal): > 0.0934 µg/piece | LD50 (Apis mellifera; oral, unspecified): > 0.105 µg/piece | NOAEL (Canidae): 1 mg/kg-day | LC50 (Pontoscolex corethrurus; acute, duration: 14 days, mortality): > 1000 mg/kg | NOEC (Pontoscolex corethrurus; chronic/long-term, duration: 56 days): > 1000 mg/kg | LD50 (Colinus virginianus; acute, oral): > 2250 mg/kg | LC50 (Colinus virginianus; acute, oral, diet): > 1340 mg/kg | NOAEL (Colinus virginianus; reproduction developmental): 93.2 mg/kg-day | LR50 (Typhlodromus pyri): > 230 g/ha | LR50 (Aphidius rhopalosiphi): 0.102 g/ha
